Measurements as given in the NIST ThermoML archive (doi:10.1016/j.fluid.2014.09.014).
± gives the expanded uncertainty stated by the source.

Test: refractive index (other wavelength) (dimensionless); xn = mol fraction of the nth substance listed
Settings: 308.15 K, 101 kPa, Liquid, Standard Abbe refractometry

CC(C)OC(C)C [diisopropyl ether] + CC(C)O
refractive index
Settings	Wavelength=404.7 nm	Wavelength=435.8 nm	Wavelength=486.1 nm	Wavelength=546.1 nm	Wavelength=587.6 nm	Wavelength=589.3 nm	Wavelength=632.8 nm
x1 = 0.0277	1.38135 ± 0.00032	1.37835 ± 0.00032	1.37495 ± 0.00032	1.37214 ± 0.00032	1.37065 ± 0.00032	1.37059 ± 0.00032	1.36929 ± 0.00032
x1 = 0.0507	1.3813 ± 0.00032	1.3783 ± 0.00032	1.37488 ± 0.00032	1.37207 ± 0.00032	1.37059 ± 0.00032	1.37053 ± 0.00032	1.36924 ± 0.00032
x1 = 0.051	1.38124 ± 0.00032	1.37824 ± 0.00032	1.37483 ± 0.00032	1.37202 ± 0.00032	1.37053 ± 0.00032	1.37047 ± 0.00032	1.36917 ± 0.00032
x1 = 0.0717	1.38092 ± 0.00032	1.37792 ± 0.00032	1.37451 ± 0.00032	1.3717 ± 0.00032	1.37072 ± 0.00032	1.37014 ± 0.00032	1.36886 ± 0.00032
x1 = 0.1528	1.38023 ± 0.00032	1.37724 ± 0.00032	1.37384 ± 0.00032	1.371 ± 0.00032	1.36953 ± 0.00032	1.36947 ± 0.00032	1.3682 ± 0.00032
x1 = 0.1553	1.38023 ± 0.00032	1.37724 ± 0.00032	1.37384 ± 0.00032	1.371 ± 0.00032	1.36953 ± 0.00032	1.36947 ± 0.00032	1.3682 ± 0.00032
x1 = 0.1938	1.37994 ± 0.00033	1.37695 ± 0.00033	1.37356 ± 0.00033	1.37072 ± 0.00033	1.36925 ± 0.00033	1.36919 ± 0.00033	1.36792 ± 0.00033
x1 = 0.2029	1.3793 ± 0.00033	1.37665 ± 0.00033	1.37311 ± 0.00033	1.37028 ± 0.00033	1.3688 ± 0.00033	1.36875 ± 0.00033	1.36748 ± 0.00033
x1 = 0.245	1.37901 ± 0.00033	1.37603 ± 0.00033	1.37266 ± 0.00033	1.36984 ± 0.00033	1.36837 ± 0.00033	1.36832 ± 0.00033	1.36706 ± 0.00033
x1 = 0.297	1.37832 ± 0.00034	1.37533 ± 0.00034	1.37193 ± 0.00034	1.36911 ± 0.00034	1.36764 ± 0.00034	1.36759 ± 0.00034	1.36631 ± 0.00034
x1 = 0.2973	1.37852 ± 0.00034	1.37554 ± 0.00034	1.37215 ± 0.00034	1.36932 ± 0.00034	1.36785 ± 0.00034	1.3678 ± 0.00034	1.36653 ± 0.00034
x1 = 0.3068	1.37823 ± 0.00034	1.37525 ± 0.00034	1.3718 ± 0.00034	1.36857 ± 0.00034	1.36754 ± 0.00034	1.36751 ± 0.00034	1.36624 ± 0.00034
x1 = 0.398	1.37692 ± 0.00035	1.37394 ± 0.00035	1.37056 ± 0.00035	1.36775 ± 0.00035	1.36628 ± 0.00035	1.36623 ± 0.00035	1.36496 ± 0.00035
x1 = 0.4609	1.37625 ± 0.00035	1.37325 ± 0.00035	1.36987 ± 0.00035	1.36707 ± 0.00035	1.3656 ± 0.00035	1.36554 ± 0.00035	1.36427 ± 0.00035
x1 = 0.5434	1.37535 ± 0.00036	1.37238 ± 0.00036	1.36896 ± 0.00036	1.3662 ± 0.00036	1.36473 ± 0.00036	1.36467 ± 0.00036	1.36338 ± 0.00036
x1 = 0.6032	1.37466 ± 0.00037	1.3717 ± 0.00037	1.3683 ± 0.00037	1.3655 ± 0.00037	1.36404 ± 0.00037	1.36398 ± 0.00037	1.36271 ± 0.00037
x1 = 0.6371	1.37427 ± 0.00038	1.37131 ± 0.00038	1.36792 ± 0.00038	1.36515 ± 0.00038	1.36369 ± 0.00038	1.36363 ± 0.00038	1.36235 ± 0.00038
x1 = 0.701	1.37352 ± 0.00039	1.37059 ± 0.00039	1.36722 ± 0.00039	1.36441 ± 0.00039	1.36297 ± 0.00039	1.36292 ± 0.00039	1.36166 ± 0.00039
x1 = 0.754	1.37312 ± 0.00039	1.37017 ± 0.00039	1.36681 ± 0.00039	1.36401 ± 0.00039	1.36256 ± 0.00039	1.36251 ± 0.00039	1.36125 ± 0.00039
x1 = 0.791	1.37271 ± 0.0004	1.36974 ± 0.0004	1.36638 ± 0.0004	1.36358 ± 0.0004	1.36215 ± 0.0004	1.36209 ± 0.0004	1.36085 ± 0.0004
x1 = 0.8296	1.37234 ± 0.00041	1.36938 ± 0.00041	1.36604 ± 0.00041	1.36323 ± 0.00041	1.36178 ± 0.00041	1.36173 ± 0.00041	1.36048 ± 0.00041
x1 = 0.8864	1.37212 ± 0.00042	1.36915 ± 0.00042	1.3658 ± 0.00042	1.363 ± 0.00042	1.36156 ± 0.00042	1.36151 ± 0.00042	–
x1 = 0.8903	1.37167 ± 0.00042	1.36871 ± 0.00042	1.36535 ± 0.00042	1.36256 ± 0.00042	1.36111 ± 0.00042	1.36106 ± 0.00042	–
x1 = 0.9113	1.37142 ± 0.00042	1.36847 ± 0.00042	1.36511 ± 0.00042	1.36232 ± 0.00042	1.36088 ± 0.00042	1.36082 ± 0.00042	–
x1 = 0.9547	1.37095 ± 0.00043	1.36796 ± 0.00043	1.36465 ± 0.00043	1.36187 ± 0.00043	1.36041 ± 0.00043	1.36036 ± 0.00043	–
x1 = 0.973	1.37062 ± 0.00043	1.36766 ± 0.00043	1.36431 ± 0.00043	1.36152 ± 0.00043	1.36008 ± 0.00043	1.36002 ± 0.00043	–
x1 = 0.9771	1.37048 ± 0.00043	1.36752 ± 0.00043	1.36417 ± 0.00043	1.36139 ± 0.00043	1.35994 ± 0.00043	1.35989 ± 0.00043	–
x1 = 1	1.37035 ± 0.00044	1.36739 ± 0.00044	1.36407 ± 0.00044	1.36127 ± 0.00043	1.35975 ± 0.00043	1.35983 ± 0.00043	–
